Source: EP0908457B1, “3-(1,2-benzisothiazol- and isoxazol-5-Y1)-2,4(1H,3H)-pyrimidinedione or thione and 3-(1,2-benzisothiazol- and isoxazol-5-y1)-4(3H)-pyrimidinone or thione herbicidal agents” (BASF AKTIENGESELLSCHAFT, priority 1997, dated 1999)

Experiments:
[1] = test system: Monochoria vaginalis, Presl.; assay: Preemergence weed control under flooded paddy conditions, MOOVA (Monochoria); assay type: in vivo; conditions: flooded paddy, rated three to four weeks after treatment
[2] = test system: Sagittaria pygmaea, L.; assay: Preemergence weed control under flooded paddy conditions, SAGPY (Arrowhead (Pygmaea)); assay type: in vivo; conditions: flooded paddy, rated three to four weeks after treatment
[3] = test system: Echinochloa oryzoides (Ard.) Fritsch.; assay: Preemergence weed control under flooded paddy conditions, ECHORC (Watergrass (Calif.)); assay type: in vivo; conditions: flooded paddy, rated three to four weeks after treatment
[4] = test system: Cyperus iria; assay: Preemergence weed control under flooded paddy conditions, CYPIR (Rice Flatsedge); assay type: in vivo; conditions: flooded paddy, rated three to four weeks after treatment
[5] = test system: Oryza sativa, (L.) Tebonnet; assay: Rice tolerance to post-transplant applications under flooded paddy conditions (Example 187), ORYSAT (Rice, Tebonnet); conditions: rated three to four weeks after treatment
[6] = test system: Cyperus serotinus, Rottb.; assay: Preemergence weed control under flooded paddy conditions, CYPSE (Flatsedge); assay type: in vivo; conditions: rated three to four weeks after treatment
[7] = Rate 0.0320 kg/ha, preemergence weeds
[8] = Rate 0.0620 kg/ha, preemergence weeds
[9] = Rate 0.1250 kg/ha, preemergence weeds
[10] = Rate 0.2500 kg/ha, preemergence weeds
[11] = Rate 0.0320 kg/ha, preemergence
[12] = Rate 0.0620 kg/ha, preemergence
[13] = Rate 0.1250 kg/ha, preemergence
[14] = Rate 0.2500 kg/ha, preemergence
Also: meaning of each grade not given here.

COc1ccc(C)cc1-c1noc2cc(F)c(-n3c(=O)cc(C(F)(F)F)n(C)c3=O)cc12 [Example 345, 2,4(1H,3H)-Pyrimidinedione, 3-[6-fluoro-3-(6-methoxy-m-tolyl)-1,2-benzisoxazol-5-yl]-1-methyl-6-(trifluoromethyl)-]
herbicidal effect rating, MOOVA [1, 7]: 9.0
herbicidal effect rating, MOOVA [1, 8]: 9.0
herbicidal effect rating, MOOVA [1, 9]: 9.0
herbicidal effect rating, MOOVA [1, 10]: 9.0
herbicidal effect rating, SAGPY [2, 7]: 4.5
herbicidal effect rating, SAGPY [2, 8]: 9.0
herbicidal effect rating, SAGPY [2, 9]: 9.0
herbicidal effect rating, SAGPY [2, 10]: 9.0
herbicidal effect rating, ECHORC [3, 7]: 9.0
herbicidal effect rating, ECHORC [3, 8]: 9.0
herbicidal effect rating, ECHORC [3, 9]: 9.0
herbicidal effect rating, ECHORC [3, 10]: 9.0
herbicidal effect rating, CYPIR [4, 7]: 9.0
herbicidal effect rating, CYPIR [4, 8]: 9.0
herbicidal effect rating, CYPIR [4, 9]: 9.0
herbicidal effect rating, CYPIR [4, 10]: 9.0
herbicidal effect rating ORYSAT ([5]; Rate 0.0320 kg/ha): 5.5
herbicidal effect rating ORYSAT ([5]; Rate 0.0620 kg/ha): 5.5
herbicidal effect rating ORYSAT ([5]; Rate 0.1250 kg/ha): 5.5
herbicidal effect rating ORYSAT ([5]; Rate 0.2500 kg/ha): 6.0
herbicidal effect rating, CYPSE [6, 7]: 5.0
herbicidal effect rating, CYPSE [6, 8]: 9.0
herbicidal effect rating, CYPSE [6, 9]: 4.5
herbicidal effect rating, CYPSE [6, 10]: 9.0

COC(C)c1nsc2ccc(-n3c(=O)cc(C(F)(F)F)n(C)c3=O)cc12 (stereo not drawn) [Example 350, 2,4(1H,3H)-Pyrimidinedione, 3-[3-(1-methoxyethyl)-1,2-benzisothiazol-5-yl]-1-methyl-6-(trifluoromethyl)-]
herbicidal effect rating, MOOVA [1, 11]: 9.0
herbicidal effect rating, MOOVA [1, 12]: 9.0
herbicidal effect rating, MOOVA [1, 13]: 9.0
herbicidal effect rating, MOOVA [1, 14]: 9.0
herbicidal effect rating, SAGPY [2, 11]: 5.5
herbicidal effect rating, SAGPY [2, 12]: 7.0
herbicidal effect rating, SAGPY [2, 13]: 7.5
herbicidal effect rating, SAGPY [2, 14]: 9.0
herbicidal effect rating, ECHORC [3, 11]: 6.0
herbicidal effect rating, ECHORC [3, 12]: 7.5
herbicidal effect rating, ECHORC [3, 13]: 8.0
herbicidal effect rating, ECHORC [3, 14]: 9.0
herbicidal effect rating, CYPIR [4, 11]: 4.0
herbicidal effect rating, CYPIR [4, 12]: 5.0
herbicidal effect rating, CYPIR [4, 13]: 9.0
herbicidal effect rating, CYPIR [4, 14]: 9.0
herbicidal effect rating ORYSAT ([5]; Rate 0.0320 kg/ha): 9.0
herbicidal effect rating ORYSAT ([5]; Rate 0.0620 kg/ha): 9.0
herbicidal effect rating ORYSAT ([5]; Rate 0.1250 kg/ha): 9.0
herbicidal effect rating ORYSAT ([5]; Rate 0.2500 kg/ha): 9.0
herbicidal effect rating, CYPSE [6, 11]: 7.5
herbicidal effect rating, CYPSE [6, 12]: 8.5
herbicidal effect rating, CYPSE [6, 13]: 8.5
herbicidal effect rating, CYPSE [6, 14]: 9.0
